# Experimental data: patent US20040072146A1, “Mechanism of mitochondrial membrane permeabilization by HIV-1 Vpr, mimetics of Vpr and methods of screening active molecules having the ability to alter and/or prevent and/or mimic the interaction of Vpr with ANT” (priority 2000, published 2004)
# Entries after “also recorded” stand apart in the source; their conditions may differ. Where a SMILES comes first, the peptide text is derived from it.
# T1: ANT-proteoliposomes (Rattus norvegicus, UniProt Q05962)
# T1 construct: ANT is purified from rat heart and reconstituted in liposomes; from tissue; host or cells: rat heart (ANT)
# T1 sequence (Q05962 1-298): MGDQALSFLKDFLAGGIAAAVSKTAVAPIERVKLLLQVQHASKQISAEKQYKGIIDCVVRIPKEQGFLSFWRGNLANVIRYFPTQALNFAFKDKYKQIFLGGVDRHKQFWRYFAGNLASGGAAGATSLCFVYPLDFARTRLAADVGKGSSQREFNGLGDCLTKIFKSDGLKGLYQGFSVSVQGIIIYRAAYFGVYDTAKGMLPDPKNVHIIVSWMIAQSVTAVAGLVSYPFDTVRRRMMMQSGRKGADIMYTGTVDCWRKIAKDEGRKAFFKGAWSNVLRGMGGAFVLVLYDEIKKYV
# T2: ANT (Rattus norvegicus, UniProt Q05962)
# T2 construct: from tissue
# T2 sequence (Q05962 whole entry, looked up): T1 sequence (Q05962 1-298)
# T3: adenine nucleotide translocator (ANT), native purified protein (rat), Q05962
# T3 chain: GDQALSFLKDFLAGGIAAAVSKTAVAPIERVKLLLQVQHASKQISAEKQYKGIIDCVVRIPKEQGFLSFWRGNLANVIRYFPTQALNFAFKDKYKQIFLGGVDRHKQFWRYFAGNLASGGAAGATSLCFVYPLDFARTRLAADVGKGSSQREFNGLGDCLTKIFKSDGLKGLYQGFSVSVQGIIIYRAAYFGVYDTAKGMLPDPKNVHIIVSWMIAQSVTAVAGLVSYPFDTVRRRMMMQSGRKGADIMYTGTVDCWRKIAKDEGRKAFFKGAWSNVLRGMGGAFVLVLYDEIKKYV
# T4: adenine nucleotide translocator (ANT), native purified protein (rat, UniProt Q05962 2-298)
# T4 construct: mature; also called adenine nucleotide translocase; ADP/ATP carrier
# T4 sequence: T3 chain
# B1: Vpr52-96, P12520 52-96 (peptide)
# peptide: DTWAGVEAIIRILQQLLFIHFRIGCRHSRIGVTRQRRARNGASRS
# modifications: not checked
# B2: adenine nucleotide translocator (ANT), native purified protein, Q05962 2-298 (protein)
# chain: T3 chain
# B3: HIV-1 Vpr (other)
# chain: B1 peptide
# notes: also called viral protein R
# Key:
# [1] = target: biotinylated Vpr52-96 (Human immunodeficiency virus type 1 group M subtype B, UniProt P69726); type: binding, HIV-1
# [2] = target: T1, ANT-proteoliposomes; assay: FITC-labeled Vpr52-96 binding onto ANT-liposomes and plain liposomes; conditions: BA 50 μM; Bcl-2 800 nM
# Procedure: A. Dose-response curve of FITC-labeled Vpr52-96 binding onto ANT-liposomes and plain liposomes.
# B. Binding of FITC-Vpr52-96 (2 μM) to plain liposomes, ANT-proteoliposomes, in the presence or absence of BA (50 μM).
# [3] = tested on: purified mitochondria; assay: Inner versus outer mitochondrial membrane permeabilization (NADH oxidation, cytochrome c oxidation); type: biochemical; conditions: for prevention of Vpr-mediated inner MMP to NADH: preincubation 10 min, Bcl-2 0.8 μM, BA 10 μM
# Procedure: A. Respirometry performed after addition of NADH and Vpr52-96 (1 μM). Numbers along the traces are nmol of O2 consumed min^−1 mg^−1 protein.
# B. Kinetics of Vpr52-96 induced inner membrane permeabilization to NADH and outer membrane permeabilization to reduced cytochrome c. Oxygen consumption was determined in the presence of 2 mM NADH (full squares) as in A (traces C-D) and cytochrome c (15 μM) oxidation (open circles) was spectrofluorometrically measured, as described Rustin et al., 1994). The 100% value of cytochrome c oxidation was determined by addition of 2.5 mM laurylmaltoside.
# Oxygen consumption of purified mitochondria was measured as in FIG. 5 after addition of succinate+CCCP or NADH, as indicated.
# [4] = tested on: isolated mitochondria; assay: Electron microscopy of isolated mitochondria (matrix swelling); type: biochemical; conditions: pre-incubation of mitochondria
# From the text: C. Ultrastructural effects of Vpr on isolated mitochondria.
# [5] = tested on: purified mitochondria; assay: ΔΨm dissipation in purified mitochondria (JC-1 flow cytometry); type: biochemical; conditions: 5 μM CsA, 50 μM BA, 0.8 μM Bcl-2, 2 μM PA10
# Procedure: Numbers indicate the percentage of JC-1^high and JC-1^low mitochondria among ˜10^4 events.
# E. Quantitation of the frequency of JC-1^low mitochondria (X±SD, n=5) after incubation with different Vpr-derived peptides.
# [6] = tested on: purified mitochondria; assay: FITC-Vpr52-96 binding to purified mitochondria; conditions: pre-incubation of the organelles
# Procedure: Mitochondria were left unstained (insert in Co.) or exposed to the ΔΨm-insensitive mitochondrial dye MitoTracker® Green (75 nM), alone (MTG) or with 0.5 μM of FITC-Vpr52-96; green fluorescence), in combination with the ΔΨm-sensitive mitochondrial dye MitoTracker® Red (CMXRos; red Fluorescence) followed by cytofluorometric two-color analysis. Numbers indicate the percentage of mitochondria in each quadrant.
# Mitochondria were incubated with the indicated inhibitors, and then exposed for 30 min at RT with 5 μM biotinylated Vpr52-96. Mitochondria were lysed either after incubation with biotinylated Vpr52-96 (upper panel) or lysed before (lower panel) with Tris/HCl as described in materials and methods. Biotinylated Vpr52-96 complexed with its mitochondrial ligands was retained on avidin-agarose and subjected to immunoblot detection of ANT.
# [7] = target: biotin-Vpr52-96 (HIV-1) (UniProt P12520); assay: SPR, Langmuir isotherm, peptide on biotinylated Vpr52-96
# [8] = target: T2, ANT; assay: Single channel recordings in planar lipid bilayers; type: biochemical
# Procedure: FIG. 3 presents electrophysiological properties of Vpr52-96 and ANT in planar lipid bilayers. Current fluctuations of Vpr52-96 (80 nM, +150 mV), Vpr52-96(0.4 nM, +100 mV), ANT (1 nM, +110 mV) and Vpr52-96+ANT (0.4:1 nM, +115 mV) and associated histograms (right) of conductance levels are shown.
# Current fluctuations of Vpr52-96 (80 nM, +150 mV), Vpr52-96 (0.4 nM, +100 mV), ANT (1 nM, +110 mV) and Vpr52-96+ANT (0.4:1 nM, 115 mV) after incorporation into synthetic membranes. Single channel recordings were performed using the “Tip-Dip” technique. The recordings shown are representative for at least three independent determinations.
# B. Statistical analysis of conductances obtained in A. Results were expressed as current distributions at different voltages. Conductances (γ; in picosiemens, pS) are calculated by division of current by voltage.
# [9] = tested on: COS cells; assay: ΔΨm dissipation in intact microinjected cells (JC-1); type: cell-based
# From the text: A. Vpr52-96-induced ΔΨm dissipation induced in intact cells.
# [10] = tested on: purified mitochondria; assay: Respirometry of purified mitochondria, respiratory control; type: biochemical; conditions: for effect on respiratory control (RC): 1 μM peptide, 10 min
# Procedure: A. Oxygen consumption curves after addition of the indicated agents. Trace a: control mitochondria (no pretreatment). Trace b: mitochondria pretreated for 10 min with 1 μM Vpr52-96. Numbers along the traces are nmol of O2 consumed min^−1 mg^31 1 protein.
# B. Respiratory control (RC) values calculated by dividing oxygen consumption in the presence of CCCP by that measured with oligomycin (determined as in A), 10 min after addition of 1 μM of Vpr-derived peptides (mean values of 3 determinations).
# [11] = target: T3, adenine nucleotide translocator (ANT), …; assay: cell-based or functional assay
# [12] = target: biotin-Vpr52-96 (HIV-1), P12520; assay: SPR, immobilised biotin-Vpr52-96, detergent-solubilized ANT as analyte
# [13] = target: T4, adenine nucleotide translocator (ANT), …; assay: not stated (summary paragraph)
molecule,measurement,setting,value
C[C@H](NC(=O)[C@H](Cc1ccccc1)NC(=O)[C@H](Cc1ccc(O)cc1)NC(=O)[C@H](CCCNC(=N)N)NC(=O)[C@H](Cc1c[nH]c2ccccc12)NC(=O)[C@H](Cc1ccccc1)NC(=O)[C@H](CCC(N)=O)NC(=O)[C@@H](NC(=O)[C@H](CCCNC(=N)N)NC(=O)[C@H](CCCCN)NC(=O)[C@@H](N)CC(=O)O)[C@@H](C)O)C(=O)NCC(=O)N[C@@H](CC(N)=O)C(=O)O [ANT104-116] (H-DKRTQFWRYFAGN-OH; N-terminus and C-terminus assumed),Kd,"[1]; read-out: calculated KD of binding of ANT104-116 to biotinylated Vpr52-96, Langmuir isotherm",35 µM
"CO[C@H](C/C=C\C=C\CC/C=C/C[C@H](C)/C=C/C(=C\C(=O)O)CC(=O)O)/C(C)=C\C=C(/C)C(=O)O [bongkrekic acid, reference compound]",effect on Vpr52-96 binding to ANT liposomes (membrane-associated ANT),[2],inhibited
same,prevention of Vpr-mediated inner MMP to NADH,[3],prevented the Vpr-mediated inner MMP to NADH
same,inhibition of Vpr-induced matrix swelling,[4],inhibited
same,inhibition of Vpr-induced ΔΨm loss in purified mitochondria,[5],inhibited
same,effect on binding of Vpr52-96 to purified mitochondria,[6],partially reduced
"C=C(C)[C@H]1Cc2c(ccc3c2O[C@@H]2COc4cc(OC)c(OC)cc4[C@@H]2C3=O)O1 [rotenone, reference compound]","sensitivity of Vpr-stimulated, NADH-dependent O2 consumption",[3],fully sensitive to rotenone
ANT-2-derived peptide ANT104-116,Kd,[7],35 µM
Bax: pro-apoptotic Bcl-2 family protein added to Vpr52-96-ANT channels,mean conductance of Vpr52-96-ANT channels with Bax,"[8]; Vpr52-96+ANT+Bax 0.4:1:0.3 nM, +75 mV",245±2 S
Bcl-2: recombinant human Bcl-2 protein,binding to Vpr52-96,[1],did not bind Vpr52-96
same,effect on Vpr52-96 binding to ANT liposomes (membrane-associated ANT),[2],reduced Vpr52-96 binding
same,effect on formation of Vpr52-96 induced channels in ANT-containing lipid bilayers,[8]; Vpr52-96+ANT+Bcl-2 0.4:1:1 nM,abolished the formation of Vpr52-96 induced channels in ANT-containing lipid bilayers
same,prevention of Vpr-mediated inner MMP to NADH,[3],prevented the Vpr-mediated inner MMP to NADH
same,inhibition of Vpr-induced matrix swelling,[4],inhibited; also recorded: strongly reduced
same,inhibition of Vpr-induced ΔΨm loss in purified mitochondria,[5],inhibited; also recorded: strongly reduced
same,prevention of Vpr effects on intact cells,"[9]; microinjected, Bcl-2 10 μM, PA10 2 μM",prevented
same,effect on binding of Vpr52-96 to purified mitochondria,[6],failed to impair the binding of Vpr52-96 to purified mitochondria
HFRIGCRHSRIG [Vpr71-82],effect on respiratory control (RC),[10],also reduced the RC values
"Vpr: proapoptotic 96 amino acid HIV-1 regulatory protein, full length Vpr1-96 (DTWAGVEAIIRILQQLLFIHFRIGCRHSRIGVTRQRRARNGASRS)",effect on respiratory control (RC),[10],also reduced the RC values
same,oxidation rate accompanying loss of RC,[10]; short-term incubation,not associated with a significant decrease of the oxidation rate
same,ΔΨm loss in intact cells,[9]; extracellular addition,"induced a rapid ΔΨm loss, before nuclear condensation occurred"
B1,conductance of Vpr52-96-ANT channels in the presence of Bax,[11],245 pS
same,conductance of channels formed by ANT and Vpr52-96 in planar lipid bilayers,[11],190 pS
B2,Kd,[12],0.0097 µM
B3,Kd,[13],0.001 µM
